# Active and inactive are the calls of the source. The calls are words filed in the database; no cut-off is given here.
# Assays:
# [1] = tested on: Vesicular stomatitis virus; assay: Antiviral activity against VSV infected in mouse L929 cells assessed as protection against virus-induced cytopathic effect treated immediately after viral infection at 12.5 uM; assay type: functional
# Calf thymus DNA = assay: Binding affinity to calf thymus DNA by ethidium bromide displacement assay; assay type: nucleic-acid assay, Bos taurus; conditions: for logKa: Bos taurus
# L929 = assay: Decrease in interferon inducing activity in VSV infected in mouse L929 cells at 1.1 uM; assay type: functional, cell-based
# [2] = tested on: Vesicular stomatitis virus; assay: Antiviral activity against VSV infected in mouse L929 cells assessed as protection against virus-induced cytopathic effect treated 24 hrs before viral infection at 13 uM; assay type: functional
# [3] = tested on: Vesicular stomatitis virus; assay: Antiviral activity against VSV infected in mouse L929 cells assessed as protection against virus-induced cytopathic effect treated 24 hrs before viral infection at 6.2 uM; assay type: functional
# [4] = tested on: Vesicular stomatitis virus; assay: Antiviral activity against VSV infected in mouse L929 cells assessed as protection against virus-induced cytopathic effect treated immediately after viral infection at 6.2 uM; assay type: functional
# [5] = tested on: Vesicular stomatitis virus; assay: Antiviral activity against VSV infected in mouse L929 cells assessed as protection against virus-induced cytopathic effect treated 24 hrs before viral infection at 113 uM; assay type: functional
# [6] = Cytotoxicity against mouse L929 cells; assay type: cell-based
# [7] = tested on: Vesicular stomatitis virus; assay: Antiviral activity against VSV infected in mouse L929 cells assessed as protection against virus-induced cytopathic effect treated immediately after viral infection at 7.1 uM; assay type: functional
# [8] = tested on: Vesicular stomatitis virus; assay: Antiviral activity against VSV infected in mouse L929 cells assessed as protection against virus-induced cytopathic effect treated immediately after viral infection at 21.3 uM; assay type: functional
# [9] = tested on: Vesicular stomatitis virus; assay: Antiviral activity against VSV infected in mouse L929 cells assessed as protection against virus-induced cytopathic effect treated 24 hrs before viral infection at 3 uM; assay type: functional
# [10] = tested on: Vesicular stomatitis virus; assay: Antiviral activity against VSV infected in mouse L929 cells assessed as protection against virus-induced cytopathic effect treated 24 hrs before viral infection at 3.1 uM; assay type: functional
# [11] = tested on: Vesicular stomatitis virus; assay: Antiviral activity against VSV infected in mouse L929 cells assessed as protection against virus-induced cytopathic effect treated immediately after viral infection at 25 uM; assay type: functional
# [12] = tested on: Vesicular stomatitis virus; assay: Antiviral activity against VSV infected in mouse L929 cells assessed as protection against virus-induced cytopathic effect treated 24 hrs before viral infection at 53 uM; assay type: functional
# [13] = tested on: Vesicular stomatitis virus; assay: Antiviral activity against VSV infected in mouse L929 cells assessed as protection against virus-induced cytopathic effect treated immediately after viral infection at 21.4 uM; assay type: functional
# [14] = tested on: Vesicular stomatitis virus; assay: Antiviral activity against VSV infected in mouse L929 cells assessed as protection against virus-induced cytopathic effect treated immediately after viral infection at 27.5 uM; assay type: functional
# [15] = tested on: Vesicular stomatitis virus; assay: Antiviral activity against VSV infected in mouse L929 cells assessed as protection against virus-induced cytopathic effect treated 24 hrs before viral infection at 110 uM; assay type: functional
# [16] = tested on: Vesicular stomatitis virus; assay: Antiviral activity against VSV infected in mouse L929 cells assessed as protection against virus-induced cytopathic effect treated immediately after viral infection at 50 uM; assay type: functional
# [17] = tested on: Vesicular stomatitis virus; assay: Antiviral activity against VSV infected in mouse L929 cells assessed as protection against virus-induced cytopathic effect treated immediately after viral infection at 6.7 uM; assay type: functional
# [18] = tested on: Vesicular stomatitis virus; assay: Antiviral activity against VSV infected in mouse L929 cells assessed as protection against virus-induced cytopathic effect treated immediately after viral infection at 5.5 uM; assay type: functional
# [19] = tested on: Vesicular stomatitis virus; assay: Antiviral activity against VSV infected in mouse L929 cells assessed as protection against virus-induced cytopathic effect treated 24 hrs before viral infection at 0.2 uM; assay type: functional
# [20] = tested on: Vesicular stomatitis virus; assay: Antiviral activity against VSV infected in mouse L929 cells assessed as protection against virus-induced cytopathic effect treated immediately after viral infection at 15 uM; assay type: functional
# [21] = tested on: Vesicular stomatitis virus; assay: Antiviral activity against VSV infected in mouse L929 cells assessed as protection against virus-induced cytopathic effect treated 24 hrs before viral infection at 30 uM; assay type: functional
SMILES,Emax at 12.5 µM [1],pIC50 (Calf thymus DNA),logKa (Calf thymus DNA),Activity (L929),CC50 [6],other results
CC1CCN(CCn2c3ccccc3c3nc4ccccc4nc32)CC1,50%,3.88,5.98,Active,–,Emax at 13 µM [2]: 90%
CC1CCCCN1CCn1c2ccccc2c2nc3ccccc3nc21 (stereo not drawn),–,4.08,6.19,Active,–,Emax at 6.2 µM [3]: 90%; Emax at 6.2 µM [4]: 77%
CCN(CC)CCn1c2ccc3ccccc3c2c2nc3ccccc3nc21,–,4.69,6.79,Active,180 µM,Emax at 113 µM [5]: 14%; Emax at 7.1 µM [7]: 56%
CCCN(CCC)CCn1c2ccc3ccccc3c2c2nc3ccccc3nc21,–,4.8,6.91,Active,> 42.6 µM,Emax at 21.3 µM [8]: 48%; Emax at 3 µM [9]: 16%
CCCCN(C)CCn1c2ccccc2c2nc3ccccc3nc21,–,3.82,5.93,Active,–,Emax at 3.1 µM [10]: 75%; Emax at 25 µM [11]: 80%
CN1CCN(CCn2c3ccccc3c3nc4ccccc4nc32)CC1,100%,3.77,5.87,Active,–,Emax at 13 µM [2]: 85%
CC1CCN(CCn2c3ccc4ccccc4c3c3nc4ccccc4nc32)CC1,–,4.48,6.58,Active,> 214 µM,Emax at 53 µM [12]: 30%; Emax at 21.4 µM [13]: 51%
CCCN(CCC)CCn1c2ccccc2c2nc3ccccc3nc21,75%,3.99,6.09,Active,–,Emax at 13 µM [2]: 90%
c1ccc2nc3c(nc2c1)c1ccccc1n3CCN1CCCC1,100%,3.95,6.05,Active,–,Emax at 3.1 µM [10]: 85%
CN(C)CCn1c2ccccc2c2nc3ccccc3nc21,–,3.83,5.93,Active,–,Emax at 3.1 µM [10]: 75%; Emax at 25 µM [11]: 100%
c1ccc2c(c1)ccc1c2c2nc3ccccc3nc2n1CCN1CCCCC1,–,4.51,6.61,Active,> 221 µM,Emax at 27.5 µM [14]: 55%; Emax at 110 µM [15]: 20%
c1ccc2nc3c(nc2c1)c1ccccc1n3CCN1CCCCC1,–,3.91,6.01,Active,–,Emax at 6.2 µM [4]: 75%; Emax at 3.1 µM [10]: 90%
c1ccc2nc3c(nc2c1)c1ccccc1n3CCN1CCCCCC1,–,4.06,6.16,Active,–,Emax at 6.2 µM [3]: 90%; Emax at 50 µM [16]: 100%
CCCCN(CC)CCn1c2ccccc2c2nc3ccccc3nc21,50%,3.91,6.01,Active,–,Emax at 3.1 µM [10]: 50%
CN1CCN(CCn2c3ccc4ccccc4c3c3nc4ccccc4nc32)CC1,–,4.84,6.94,Active,21.4 µM,Emax at 6.7 µM [17]: 80%; Emax at 13 µM [2]: 17%
CCN(CC)CCn1c2ccccc2c2nc3ccccc3nc21,100%,3.97,6.07,Active,–,Emax at 6.2 µM [3]: 90%
c1ccc2nc3c(nc2c1)c1ccccc1n3CCN1CCOCC1,–,3.78,5.89,Active,1070 µM,Emax at 6.2 µM [4]: 30%; Emax at 13 µM [2]: 85%
c1ccc2c(c1)ccc1c2c2nc3ccccc3nc2n1CCN1CCOCC1,–,4.84,6.94,Active,–,Emax at 5.5 µM [18]: 50%; Emax at 0.2 µM [19]: 10%
CC1CCCCN1CCn1c2ccc3ccccc3c2c2nc3ccccc3nc21 (stereo not drawn),–,4.73,6.83,Active,113 µM,Emax at 53 µM [12]: 20%; Emax at 6.7 µM [17]: 50%
CN(C)CCn1c2ccc3ccccc3c2c2nc3ccccc3nc21,–,4.84,6.94,Active,49.9 µM,Emax at 15 µM [20]: 45%; Emax at 30 µM [21]: 21%
